Patent US20200377510A1, “DERIVATIVES OF PIPERLONGUMINE AND USES THEREOF” (Auransa Inc., priority 2019, published 2020)
Like-named read-outs stand apart in the source and are kept apart here. Values belong to the compound of their own block, whether it stands above or below them.

Tests used:
[1] = system: multiple myeloma (MOLP-8) cells; experiment: In vitro cell viability assay (CellTiter-Glo, ATP levels); assay type: cell-based; conditions: Homo sapiens, MOLP-8, 168 h, 7-day incubation, average IC50
Procedure: (§1) The present disclosure provides a method for inhibiting cell viability, as measured by ATP levels. The method for inhibiting cell viability is drawn to contacting various cancer cells with the compounds described herein at various concentrations. The cancer cell lines were maintained in culture conditions at 37° C. in an atmosphere of 5% CO2 in air. The cells growing in an exponential growth phase were harvested and counted for plating. Compounds were incubated in two cancer cell types representing multiple myeloma (MOLP-8) and triple negative breast cancer (DU4475). Cells were plated at an optimized cell numbers per well in 96-well plates and allowed to attach to the plates overnight at approximately 80% confluency.
(§2) After addition of compounds, plates were incubated for 7-day. At the end of incubation period on day 8, media was removed and replaced with a solution of CellTiter-Glo™ reagent (Promega®) according to protocol. Luminescence was read using an EnVision® multi-label plate reader (Perkin-Elmer®), and signal intensity was calculated relative to positive and negative control wells. Cisplatin was included as the positive control. A dose-response calculation was performed in a non-linear regression fit and by using the Hill equation to calculate a concentration-response curve and 50% inhibitory concentration (IC50) values for each compound. […]

[2] = system: triple negative breast cancer (DU4475) cells; experiment: as above; assay type: cell-based; conditions: Homo sapiens, DU-4475, 168 h, 7-day incubation, average IC50
Procedure: as §1, §2

[3] = In vivo pharmacokinetic analysis (plasma); conditions: female, Balb/C, mouse, mice, read-out: Plasma half-life t1/2 (converted)
Procedure: Age 8 to 9 weeks Balb/C female mice were used for this study. The mice were maintained in a special pathogen-free environment and in disposable cages. Animal room was set to maintain temperature and relative humidity at 23° C.±3° C. and 55%±15%, respectively. Housing room was on a 12:12 light/dark cycle. Water was supplied ad libitum to each cage via water bottles. All mice were fed rodent diet with 18% protein. All animals were weighed before commencement of the study.
Compound 1 was stored at 4° C. protected from light. Dosing solutions were used within 2 hours of preparation. Compound 1 was formulated within 2 hours prior to dosing by adding the pre-calculated volume of PEG 400 (40% of total solution volume). Formulated compound 1 was vortexed and sonicated until a clear solution was formed. To this clear formulation, saline (60% of total solution volume) was added and vortexed until a clear solution was formed. The Compound 1 solution was filtered using a sterile syringe filter (0.2 μm coming filter). All Compound 1 solutions were mixed thoroughly prior to pulling up into syringes and prior to dosing. 12 mice were dosed intravenously at 5 mg/kg. 12 mice were dosed intraperitoneally at 10 mg/kg. 12 mice were dosed orally at 10 mg/kg. Animals were sacrificed for blood and organs sampling. Under isoflurane anesthesia, blood was collected via retro-orbital route. Blood samples were then centrifuged for 5 minutes at a minimum of 2,000×g. Plasma supernatant (a minimum of 50 μL or as much as feasible to collect) was collected. Plasma was stored at −80° C.
Bioanalytical analysis of plasma levels of Compound 1 was performed by mass spectrometry. Calibration standards were prepared by spiking the test compound into blank plasma. Calibrator concentrations were 5,000, 2,000, 1,000, 200, 100, 20, 10, 2 and 1 ng/mL. Calibration standard samples were processed along with the test samples.
Twenty μL aliquots of plasma test samples were treated with 100 μL of methanol: acetonitrile (5:95 v:v) containing internal standard (12.5 ng/mL verapamil). The mixtures were vortexed on a shaker for 15 minutes and subsequently centrifuged at 4,000 rpm for 15 minutes. An aliquot of 50 μL of the supernatant was mixed with 100 μL of water with 0.1% formic acid for injection to the LC/MS/MS (liquid chromatography/tandem-mass spectrometry).
The concentration of Compound 1 was determined by a UPLC-TIS-MS-MS method (ultra performance liquid chromatography—turbo ion spray—tandem mass spectrometry). The UPLC comprised a Shimadzu LC-30AD HPLC (high performance liquid chromatography). Chromatographic separation was achieved using a Waters UPLC column (Acquity UPLC BEH C18, 50×2.1 mm, 1.7 μM). Mobile phase A was water with 0.1% formic acid; mobile phase B was acetonitrile with 0.1% formic acid. The gradient program was as follows: 20% B (0-0.2 min), 20-95% B (0.2-1.2 min), 95% B (1.2-1.8 min), 95-20% B (1.81-2.2 min). The flow rate was 0.6 mL/minute. The column was maintained at 50° C.
Mass spectrometric analysis was performed using an AB Sciex API5000 with Turbo Ion Spray interface operating in a positive ionization mode. Quantification was performed using multiple reaction monitoring (MRM) method with the transitions of (m/z) 316.104→(m/z) 219.014 for Compound 1 and (m/z) 455.346→(m/z) 165 for verapamil (internal standard). Pharmacokinetics of Compound 1 ((E)-1-(3-(8-methoxy-2,3-dihydrobenzo[b][1,4]dioxin-6-yl)acryloyl)-5,6-dihydropyridin-2(1H)-one) in the plasma of the mice dosed intravenously (IV; 5 mg/kg), intraperitoneally (IP; 10 mg/kg) and orally (PO; 10 mg/kg) (n=3 per time point) is illustrated in FIG. 1.

[4] = system: collagen-induced arthritis; experiment: Collagen-induced arthritis in female Lewis rats; assay type: in vivo; conditions: 3 mg/kg QD PO, vs vehicle control rats

IC50 [1]: 6.11 µM
IC50 [2]: 5.06 µM
SMILES: C/C(=C/c1ncccn1)C(=O)N1CCC=CC1=O [Compound 49]

half-life ([3]; plasma, IP, 10 mg/kg): 1.14 h
half-life ([3]; plasma, IV, 5 mg/kg): 1.66 h
half-life ([3]; plasma, PO, 10 mg/kg): 2.16 h
SMILES: COc1cc(/C=C/C(=O)N2CCC=CC2=O)cc2c1OCCO2 [Compound 1, (E)-1-(3-(8-methoxy-2,3-dihydrobenzo[b][1,4]dioxin-6-yl)acryloyl)-5,6-dihydropyridin-2(1H)-one]

SMILES: CCS(=O)(=O)N1CC(CC#N)(n2cc(-c3ncnc4[nH]ccc34)cn2)C1 [baricitinib]
reduction of ankle diameter measurements AUC [4]: 72%
reduction of final hind-paw weights [4]: 71%

SMILES: COc1cc(/C=C/C(=O)N2CCC=CC2=O)cc(OC)c1OC [piperlongumine, 1-[(E)-3-(3,4,5-trimethoxyphenyl)prop-2-enoyl]-2,3-dihydropyridin-6-one]
half-life ([3]; in vivo, IP, 10 mg/kg): 1.07 h
half-life ([3]; in vivo, IV, 5 mg/kg): 1.26 h
half-life ([3]; in vivo, PO, 10 mg/kg): 1.31 h
